Data as given in ChEMBL document CHEMBL1201862, “PubChem BioAssay data set” (2004).
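1) Cells in 96-well plates. 2) Compound, 48 h, 5 concentrations. 3) Linear interpolation between surrounding doses. 4) Unreached endpoint = highest concentration. GI50 is the concentration that inhibits growth by half.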 Activity calls are given as the source filed them. Rule as the data show it: active = GI50 up to about 1.1 µM and inactive = higher.

What was measured:
Test in all cases: NCI tumour cell line growth inhibition, 48 h
LXFL 529 = test system: LXFL 529
SF-539 = test system: SF-539
SF-268 = test system: SF-268
MOLT-4 = test system: MOLT-4
OVCAR-5 = test system: OVCAR-5
SK-MEL-5 = test system: SK-MEL-5
A549 = test system: A549
TK-10 = test system: TK-10
OVCAR-8 = test system: OVCAR-8
K562 = test system: K562
KM12 = test system: KM12
786-0 = test system: 786-0
SN12C = test system: SN12C
OVCAR-4 = test system: OVCAR-4
KM-20L2 = test system: KM-20L2
LOX IMVI = test system: LOX IMVI
DMS-273 = test system: DMS-273
SF-295 = test system: SF-295
NCI-H522 = test system: NCI-H522
SNB-19 = test system: SNB-19
SK-OV-3 = test system: SK-OV-3
SNB-78 = test system: SNB-78
SNB-75 = test system: SNB-75
HCT-116 = test system: HCT-116
CAKI-1 = test system: CAKI-1
UACC-62 = test system: UACC-62
M19-MEL = test system: M19-MEL
U-251 = test system: U-251
IGROV-1 = test system: IGROV-1
SK-MEL-28 = test system: SK-MEL-28
EKVX = test system: EKVX
UACC-257 = test system: UACC-257
OVCAR-3 = test system: OVCAR-3
RXF 631 = test system: RXF 631
A498 = test system: A498
HL-60 = test system: HL-60
SK-MEL-2 = test system: SK-MEL-2
UO-31 = test system: UO-31
RPMI-8226 = test system: RPMI-8226
XF498 = test system: XF498
SW-620 = test system: SW-620
Malme-3M = test system: Malme-3M
HCC 2998 = test system: HCC 2998
SR = test system: SR
DMS-114 = test system: DMS-114
CCRF-CEM = test system: CCRF-CEM
M14 = test system: M14
DLD-1 = test system: DLD-1
HOP-62 = test system: HOP-62
HOP-92 = test system: HOP-92
NCI-H460 = test system: NCI-H460
HOP-18 = test system: HOP-18
COLO 205 = test system: COLO 205
HT-29 = test system: HT-29
HCT-15 = test system: HCT-15
ACHN = test system: ACHN
NCI-H23 = test system: NCI-H23
NCI-H226 = test system: NCI-H226
T47D = test system: T47D
MDA-MB-435 = test system: MDA-MB-435
MDA-N = test system: MDA-N
MDA-MB-231 = test system: MDA-MB-231
BT-549 = test system: BT-549
RXF 393 = test system: RXF 393
Hs-578T = test system: Hs-578T
MCF7 = test system: MCF7
DU-145 = test system: DU-145
PC-3 = test system: PC-3

SMILES: NC(=O)N/N=C(/Cc1nc2ccc(C(=O)c3ccccc3)cc2nc1O)C(=O)Nc1ccc(C(F)(F)F)cc1[N+](=O)[O-]
- GI50 (LXFL 529): 45.5 µM (inactive)
- GI50 (SF-539): 66.5 µM (inactive)
- GI50 (SF-268): > 100 µM (inactive)
- GI50 (MOLT-4): 6.1 µM (inactive)
- GI50 (OVCAR-5): > 100 µM (inactive)
- GI50 (SK-MEL-5): 56.2 µM (inactive)
- GI50 (A549): > 100 µM (inactive)
- GI50 (TK-10): > 100 µM (inactive)
- GI50 (OVCAR-8): 77.8 µM (inactive)
- GI50 (K562): 39.6 µM (inactive)
- GI50 (KM12): 84.5 µM (inactive)
- GI50 (786-0): > 100 µM (inactive)
- GI50 (SN12C): > 100 µM (inactive)
- GI50 (OVCAR-4): > 100 µM (inactive)
- GI50 (KM-20L2): 98.2 µM (inactive)
- GI50 (LOX IMVI): 79.4 µM (inactive)
- GI50 (DMS-273): 51.9 µM (inactive)
- GI50 (SF-295): 74.8 µM (inactive)
- GI50 (NCI-H522): 22.6 µM (inactive)
- GI50 (SNB-19): > 100 µM (inactive)
- GI50 (SK-OV-3): 84.1 µM (inactive)
- GI50 (SNB-78): > 100 µM (inactive)
- GI50 (SNB-75): 26 µM (inactive)
- GI50 (HCT-116): > 100 µM (inactive)
- GI50 (CAKI-1): 42.8 µM (inactive)
- GI50 (UACC-62): 38.7 µM (inactive)
- GI50 (M19-MEL): > 100 µM (inactive)
- GI50 (U-251): 75 µM (inactive)
- GI50 (IGROV-1): > 100 µM (inactive)
- GI50 (SK-MEL-28): > 100 µM (inactive)
- GI50 (EKVX): 14.2 µM (inactive)
- GI50 (UACC-257): > 100 µM (inactive)
- GI50 (OVCAR-3): 43.4 µM (inactive)
- GI50 (RXF 631): 47 µM (inactive)
- GI50 (A498): > 100 µM (inactive)
- GI50 (HL-60): 42.1 µM (inactive)
- GI50 (SK-MEL-2): > 100 µM (inactive)
- GI50 (UO-31): 51.5 µM (inactive)
- GI50 (RPMI-8226): 50.1 µM (inactive)
- GI50 (XF498): 38.6 µM (inactive)
- GI50 (SW-620): 65.2 µM (inactive)
- GI50 (Malme-3M): > 100 µM (inactive)
- GI50 (HCC 2998): 61.4 µM (inactive)
- GI50 (SR): 45.4 µM (inactive)
- GI50 (DMS-114): 52.1 µM (inactive)
- GI50 (CCRF-CEM): 36.5 µM (inactive)
- GI50 (M14): 85.9 µM (inactive)
- GI50 (DLD-1): > 100 µM (inactive)
- GI50 (HOP-62): > 100 µM (inactive)
- GI50 (HOP-92): 45.7 µM (inactive)
- GI50 (NCI-H460): 65 µM (inactive)
- GI50 (HOP-18): 60.3 µM (inactive)
- GI50 (COLO 205): 25.5 µM (inactive)
- GI50 (HT-29): 57.4 µM (inactive)
- GI50 (HCT-15): 50.7 µM
- GI50 (ACHN): > 100 µM (inactive)
- GI50 (NCI-H23): 84.7 µM (inactive)

SMILES: COc1ccccc1NC(=O)C1=C(C)NC(C)=C(C(=O)Nc2ccccc2OC)C1c1ccco1
- GI50 (LXFL 529): 5.15 µM (inactive)
- GI50 (SF-539): 4.13 µM (inactive)
- GI50 (SF-268): 10.3 µM (inactive)
- GI50 (MOLT-4): 3.87 µM (inactive)
- GI50 (OVCAR-5): 39.8 µM (inactive)
- GI50 (SK-MEL-5): 3.02 µM (inactive)
- GI50 (A549): 5.18 µM (inactive)
- GI50 (TK-10): 19.5 µM (inactive)
- GI50 (OVCAR-8): 17.8 µM (inactive)
- GI50 (K562): 5.19 µM (inactive)
- GI50 (KM12): 3.98 µM (inactive)
- GI50 (786-0): 4.45 µM (inactive)
- GI50 (SN12C): 13.4 µM (inactive)
- GI50 (OVCAR-4): 8.57 µM (inactive)
- GI50 (KM-20L2): 3.76 µM (inactive)
- GI50 (LOX IMVI): 8.07 µM (inactive)
- GI50 (DMS-273): 4.14 µM (inactive)
- GI50 (NCI-H226): 7.94 µM (inactive)
- GI50 (SF-295): 4.31 µM (inactive)
- GI50 (NCI-H522): 2.66 µM (inactive)
- GI50 (SNB-19): 7.71 µM (inactive)
- GI50 (T47D): 11.9 µM (inactive)
- GI50 (SK-OV-3): 7.01 µM (inactive)
- GI50 (MDA-MB-435): 3.48 µM (inactive)
- GI50 (SNB-78): 9.1 µM (inactive)
- GI50 (MDA-N): 2.74 µM (inactive)
- GI50 (SNB-75): 3.37 µM (inactive)
- GI50 (HCT-116): 4.36 µM (inactive)
- GI50 (MDA-MB-231): 23.6 µM (inactive)
- GI50 (CAKI-1): 4.09 µM (inactive)
- GI50 (UACC-62): 3.12 µM (inactive)
- GI50 (M19-MEL): 4.63 µM (inactive)
- GI50 (U-251): 5.86 µM (inactive)
- GI50 (IGROV-1): 9.14 µM (inactive)
- GI50 (SK-MEL-28): 19.7 µM (inactive)
- GI50 (EKVX): 10.9 µM (inactive)
- GI50 (BT-549): 8.49 µM (inactive)
- GI50 (UACC-257): 9.55 µM (inactive)
- GI50 (RXF 393): 2.51 µM (inactive)
- GI50 (OVCAR-3): 2.91 µM (inactive)
- GI50 (RXF 631): 6.18 µM (inactive)
- GI50 (A498): 4.3 µM (inactive)
- GI50 (HL-60): 0.638 µM (active)
- GI50 (SK-MEL-2): 3.64 µM (inactive)
- GI50 (UO-31): 9.27 µM (inactive)
- GI50 (RPMI-8226): 4.52 µM (inactive)
- GI50 (XF498): 6.01 µM (inactive)
- GI50 (SW-620): 4.49 µM (inactive)
- GI50 (Hs-578T): 3.1 µM (inactive)
- GI50 (MCF7): 3.59 µM (inactive)
- GI50 (Malme-3M): 4.2 µM (inactive)
- GI50 (HCC 2998): 8.79 µM (inactive)
- GI50 (DU-145): 21.4 µM (inactive)
- GI50 (SR): 1.34 µM (inactive)
- GI50 (DMS-114): 2.87 µM (inactive)
- GI50 (CCRF-CEM): 5.06 µM (inactive)
- GI50 (PC-3): 3.47 µM (inactive)
- GI50 (M14): 4.71 µM (inactive)
- GI50 (DLD-1): 4.27 µM (inactive)
- GI50 (HOP-62): 6.28 µM (inactive)
- GI50 (HOP-92): 3.98 µM (inactive)
- GI50 (NCI-H460): 3.56 µM (inactive)
- GI50 (HOP-18): 3.31 µM (inactive)
- GI50 (COLO 205): 5.56 µM (inactive)
- GI50 (HT-29): 3.92 µM (inactive)
- GI50 (HCT-15): 4.76 µM
- GI50 (ACHN): 6.41 µM (inactive)
- GI50 (NCI-H23): 6.4 µM (inactive)

SMILES: CC1=NN(C(=O)CC(=O)NC(=O)CC(=O)Nc2ccccc2F)C(=O)C1/N=N/c1ccc([N+](=O)[O-])cc1 (stereo not given)
- GI50 (LXFL 529): 37.2 µM (inactive)
- GI50 (SF-539): > 100 µM (inactive)
- GI50 (SF-268): 82.2 µM (inactive)
- GI50 (MOLT-4): 39.3 µM (inactive)
- GI50 (OVCAR-5): 97.7 µM (inactive)
- GI50 (SK-MEL-5): 44.4 µM (inactive)
- GI50 (A549): 35 µM (inactive)
- GI50 (TK-10): 44.1 µM (inactive)
- GI50 (OVCAR-8): 47.6 µM (inactive)
- GI50 (K562): 28.1 µM (inactive)
- GI50 (KM12): 56.1 µM (inactive)
- GI50 (786-0): 27.7 µM (inactive)
- GI50 (SN12C): > 100 µM (inactive)
- GI50 (OVCAR-4): 29.9 µM (inactive)
- GI50 (KM-20L2): 29.8 µM (inactive)
- GI50 (LOX IMVI): 19.6 µM (inactive)
- GI50 (DMS-273): 39.1 µM (inactive)
- GI50 (NCI-H226): 33.1 µM (inactive)
- GI50 (SF-295): 37.2 µM (inactive)
- GI50 (SNB-19): 60.1 µM (inactive)
- GI50 (SK-OV-3): 45.3 µM (inactive)
- GI50 (SNB-78): > 100 µM (inactive)
- GI50 (SNB-75): 34.2 µM (inactive)
- GI50 (HCT-116): 21 µM (inactive)
- GI50 (CAKI-1): 63.1 µM (inactive)
- GI50 (UACC-62): 55.3 µM (inactive)
- GI50 (M19-MEL): 30.3 µM (inactive)
- GI50 (U-251): 21.3 µM (inactive)
- GI50 (IGROV-1): 52 µM (inactive)
- GI50 (SK-MEL-28): > 100 µM (inactive)
- GI50 (EKVX): 35.1 µM (inactive)
- GI50 (UACC-257): 29.6 µM (inactive)
- GI50 (OVCAR-3): 28.6 µM (inactive)
- GI50 (RXF 631): 30.2 µM (inactive)
- GI50 (A498): 34.3 µM (inactive)
- GI50 (SK-MEL-2): > 100 µM (inactive)
- GI50 (UO-31): 26.7 µM (inactive)
- GI50 (RPMI-8226): 22.6 µM (inactive)
- GI50 (XF498): 28.3 µM (inactive)
- GI50 (SW-620): 20 µM (inactive)
- GI50 (Malme-3M): 39 µM (inactive)
- GI50 (HCC 2998): 71.6 µM (inactive)
- GI50 (DMS-114): 21.1 µM (inactive)
- GI50 (CCRF-CEM): 33.3 µM (inactive)
- GI50 (M14): 57.4 µM (inactive)
- GI50 (DLD-1): 42.3 µM (inactive)
- GI50 (HOP-62): 56.5 µM (inactive)
- GI50 (HOP-92): 51.4 µM (inactive)
- GI50 (NCI-H460): 37.1 µM (inactive)
- GI50 (HOP-18): 31.5 µM (inactive)
- GI50 (COLO 205): 31.2 µM (inactive)
- GI50 (HT-29): 19.8 µM (inactive)
- GI50 (HCT-15): 33.7 µM
- GI50 (ACHN): 30.1 µM (inactive)
- GI50 (NCI-H23): 51.9 µM (inactive)
